Test [1] has as its system Human umbilical vein-derived vascular endothelial cells (HUVEC). Put plainly: Vascular endothelial cell growth inhibitory test (VEGF-stimulated HUVEC, XTT). The following applies: 120 h, 5 days of culture. Format: cell-based. On the procedure: To be specific, HUVEC was suspended in a vascular endothelial cell medium containing the aforementioned 5% bovine fetal serum and plated on a 96 well flat bottom plate by 50 μL (3000 cells) each well. After culture overnight, various concentrations of the test substance and 120 ng/mL of vascular endothelial growth factor (VEGF) were dissolved in a vascular endothelial cell medium containing 5% bovine fetal serum and added to each well by 50 μL. After 5 days of culture, a XTT reagent (Wako Pure Chemical Industries, Ltd.) was added to each well by 10 μL, and the mixture was reacted in an incubator at 37° C., 5% carbon dioxide for 2-3 hr. The absorbance at 450 nm was measured by a microtiter plate reader and the cell growth inhibitory activity was determined.
Background: Tetrazolium assays rely on reduction of a dye to a coloured formazan, in cell work by metabolically active cells.

The target in test [2] is T1, PDGFRβ intracellular domain protein (Homo sapiens, UniProt P09619).
T1 construct: 125 ng/ml of PDGFRβ intracellular domain protein (UPSTATE); purchased UPSTATE
Description: Determination of platelet-derived growth factor receptor β (PDGFRβ) kinase inhibitory activity (AlphaScreen). Format: biochemical. The procedure:
(§1) A test compound dissolved in dimethyl sulfoxide (DMSO) was diluted with a buffer (50 mM Tris-HCl (pH 7.5), 5 mM MgCl2, 5 mM MnCl2, 2 mM dithiothreitol, 0.01% Tween-20). To this compound solution (5 μL) was added a buffer (10 μL) containing 125 ng/ml of PDGFRβ intracellular domain protein (UPSTATE) and 250 ng/mL of biotin labeled polypeptide biotinyl-poly-Glu:Tyr (4:1) (CIS bio International). At 5 min after mixing kinase enzyme and the compound and biotin labeled polypeptide, to the obtained mixture was added a buffer (10 μL) containing ATP (25 μM), the mixture was allowed to react at 25° C. for 30 min and the reaction was quenched with 25 μL of a stop solution (100 mM EDTA disodium salt, 62.5 mM HEPES buffer (pH 7.4), 250 mM NaCl, 0.1% bovine serum albumin, 10 μg/mL AlphaScreen assay streptavidin donor beads (Streptavidin Donor Beads: PerkinElmer), 10 μg/mL AlphaScreen assay anti-phosphotyrosine recognition antibody PT-66 binding acceptor beads (Anti-phosphotyrosine (P-Tyr-66) Acceptor beads: PerkinElmer)). The reaction solution was allowed to stand at 25° C. for 16 hrs, and the wells were counted using a plate reader Fusion™ (PerkinElmer). The kinase inhibitory rate (%) of the test compound was calculated by the following formula: Inhibitory rate(%)=(1−(count of test compound=blank)÷(control−blank))×100
(§2) The count of the solution reacted without addition of the compound was used as a “control”, and the count of the solution without the compound and ATP was used as a “blank”.
On the technique in general: In Alpha technology, singlet oxygen from a donor bead excites a nearby acceptor bead.

The target of test [3] is T2, VEGFR2 intracellular domain protein (Homo sapiens, UniProt P35968).
T2 construct: made in house; host or cells: SF-21 insect cells, recombinant baculovirus BAC-VEGFR2
Description: Determination of vascular endothelial growth factor receptor 2 (VEGFR2) kinase inhibitory activity (AlphaScreen). Type of test: biochemical. Conditions: read-out: VEGFR2 kinase inhibitory rate. The procedure:
Human vascular endothelial growth factor receptor 2 (hereinafter to be referred to as VEGFR2) gene was cloned by PCR using cDNA Libraries Human Placenta (Clontech) as a template. The primer used for PCR was prepared from base sequence (Genbank Accession AF035121) information of VEGFR2 gene by adding a base sequence encoding flag peptide and a recognition sequence of the restriction enzyme to a base sequence (2671-4374 of Genbank Accession AF035121) encoding the VEGFR2 intracellular domain region, so that the protein contains an N-terminal Flag tag. The primer base sequence is shown below.
SF-21 cells were sown at 1×10^6 cells/mL to Sf-900II SFM medium (1 L, Invitrogen) containing 10% fetal bovine serum (trace), 50 mg/L Gentamicin (Invitrogen) and 0.1% Pluronic F-68 (Invitrogen), and shaking culture was performed using a 2 L volume Erlenmeyer flask at 27° C., 100 rpm. After culturing for 24 hrs, recombinant baculovirus BAC-VEGFR2 (13.4 mL) was added to the mixture, and the mixture was further cultured for 3 days. The culture medium was centrifuged at 2,000 rpm for 5 min to give virus-infected cells. The infected cells were washed with a phosphate buffered saline (Invitrogen), centrifuged under the same conditions, and the cells were preserved at −80° C. The cryopreserved cells were thawed in ice, suspended in buffer A (50 mM Tris buffer (30 mL, pH 7.4) containing 20% glycerol, 0.15 M NaCl) supplemented with Complete Protease Inhibitor (Boehringer), and ruptured 3 times with a Polytron homogenizer (Kinematica) at 20,000 rpm for 30 sec. The ruptured medium was clarified by centrifugation at 40,000 rpm for 30 min and filtered with a 0.45 μm filter. The filtrate was passed through a column packed with Anti-FLAG M2 Affinity Gel (4 mL, Sigma) at a flow rate of about 0.5 mL/min. The column was washed with buffer A, and eluted with buffer A containing 100 μg/mL of FLAG peptide. The eluate was concentrated with Vivaspin 20 (Vivascience) having a molecular weight cut off of 30K. The buffer of this concentrate was exchanged using NAP™ 25 column (Amersham Bioscience) equilibrated with buffer A. The fractions containing intracellular domain protein of VEGFR2 were collected, glycerol was added to the final concentration of 50% and cryopreserved at −80° C.
A test compound dissolved in dimethyl sulfoxide (DMSO) was diluted with a buffer (50 mM Tris-HCl (pH 7.5), 5 mM MgCl2, 5 mM MnCl2, 2 mM dithiothreitol, 0.01% Tween-20). To this compound solution (5 μL) was added a buffer (10 μL) containing 50 ng/mL of VEGFR2 intracellular domain protein and 250 ng/mL of biotin labeled polypeptide biotinyl-poly-Glu:Tyr (4:1) (CIS bio International). To the obtained mixture was added a buffer (10 μL) containing ATP (25 μM), the mixture was allowed to react at 25° C. for 5 min and the reaction was quenched with 25 μL of a stop solution (100 mM EDTA disodium salt, 62.5 mM HEPES buffer (pH 7.4), 250 mM NaCl, 0.1% bovine serum albumin, 10 μg/mL AlphaScreen assay streptavidin donor beads (Streptavidin Donor beads: PerkinElmer), 10 μg/mL AlphaScreen assay anti-phosphotyrosine recognition antibody PY-100 binding acceptor beads (Anti-phosphotyrosine (P-Tyr-100) Acceptor beads: PerkinElmer)). The reaction solution was allowed to stand at 25° C. for 16 hrs, and the wells were counted using a plate reader Fusion™ (PerkinElmer). The kinase inhibitory rate (%) of the test compound was calculated by the following formula: Inhibitory rate(%)=(1−(count of test compound−blank)÷(control−blank))×100

Test [4] has as its target T3, PDGFRα intracellular domain protein (Homo sapiens, UniProt P16234).
T3 construct: 125 ng/ml of PDGFRα intracellular domain protein (UPSTATE); purchased UPSTATE
Put plainly: Determination of platelet-derived growth factor receptor α (PDGFRα) kinase inhibitory activity (AlphaScreen). Type of test: biochemical. On the procedure: as §1, with “PDGFRα” for “PDGFRβ”, “beads:” for “Beads:”, “compound−blank)÷(control−blank))×100” for “compound=blank)÷(control−blank))×100”
as §2

Usually IC50 stands for the concentration needed to halve the response being measured.

T2 sequence (P35968 786-1356 limits assumed): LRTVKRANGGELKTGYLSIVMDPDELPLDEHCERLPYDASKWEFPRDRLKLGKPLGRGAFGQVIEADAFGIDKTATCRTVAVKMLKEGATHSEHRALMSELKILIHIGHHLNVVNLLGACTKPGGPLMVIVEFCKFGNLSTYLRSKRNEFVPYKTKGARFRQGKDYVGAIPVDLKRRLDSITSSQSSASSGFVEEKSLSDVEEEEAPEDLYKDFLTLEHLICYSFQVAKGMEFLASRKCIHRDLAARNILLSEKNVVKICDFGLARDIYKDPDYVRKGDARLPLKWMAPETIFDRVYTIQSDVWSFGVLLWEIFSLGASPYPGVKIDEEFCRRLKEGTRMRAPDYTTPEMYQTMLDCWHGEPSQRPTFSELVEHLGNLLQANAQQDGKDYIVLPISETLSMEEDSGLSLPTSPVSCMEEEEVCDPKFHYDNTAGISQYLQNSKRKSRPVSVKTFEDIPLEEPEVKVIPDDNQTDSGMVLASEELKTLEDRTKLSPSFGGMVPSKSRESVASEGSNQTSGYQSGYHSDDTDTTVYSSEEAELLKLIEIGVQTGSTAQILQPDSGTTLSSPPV
T3 sequence (P16234 550-1089 limits assumed): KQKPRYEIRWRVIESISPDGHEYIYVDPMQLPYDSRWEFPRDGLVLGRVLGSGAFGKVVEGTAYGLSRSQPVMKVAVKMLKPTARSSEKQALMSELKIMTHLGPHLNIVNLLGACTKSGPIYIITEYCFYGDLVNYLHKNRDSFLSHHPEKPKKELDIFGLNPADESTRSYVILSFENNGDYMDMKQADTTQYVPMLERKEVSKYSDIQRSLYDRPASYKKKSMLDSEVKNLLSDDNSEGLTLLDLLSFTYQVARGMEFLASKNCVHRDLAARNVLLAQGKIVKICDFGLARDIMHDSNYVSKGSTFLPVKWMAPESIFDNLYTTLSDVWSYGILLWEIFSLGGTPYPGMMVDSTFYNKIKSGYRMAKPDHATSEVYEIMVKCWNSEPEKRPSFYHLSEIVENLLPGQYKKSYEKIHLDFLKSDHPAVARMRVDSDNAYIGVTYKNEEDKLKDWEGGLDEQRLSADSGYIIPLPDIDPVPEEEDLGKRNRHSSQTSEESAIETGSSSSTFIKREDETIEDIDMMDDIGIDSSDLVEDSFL
T1 sequence (P09619 554-1106 limits assumed): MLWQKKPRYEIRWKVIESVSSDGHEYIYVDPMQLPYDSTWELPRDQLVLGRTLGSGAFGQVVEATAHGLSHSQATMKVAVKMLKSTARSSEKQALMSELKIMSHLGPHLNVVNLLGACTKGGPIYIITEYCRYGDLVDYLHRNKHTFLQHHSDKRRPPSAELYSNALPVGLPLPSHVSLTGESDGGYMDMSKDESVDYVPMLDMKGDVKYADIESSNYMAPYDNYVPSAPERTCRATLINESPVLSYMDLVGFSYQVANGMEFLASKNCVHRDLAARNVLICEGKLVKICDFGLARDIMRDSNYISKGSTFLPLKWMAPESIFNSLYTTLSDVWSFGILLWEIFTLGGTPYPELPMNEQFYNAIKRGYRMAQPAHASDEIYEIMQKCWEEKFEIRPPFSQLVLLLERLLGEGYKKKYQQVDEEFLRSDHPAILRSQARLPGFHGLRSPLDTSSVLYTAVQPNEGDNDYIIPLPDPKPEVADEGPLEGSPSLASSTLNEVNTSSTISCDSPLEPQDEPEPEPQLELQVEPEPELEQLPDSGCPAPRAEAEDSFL

Take `CCn1cc(C(=O)Nc2cc(Oc3ccc4nc(NC(=O)C5CC5)cn4n3)ccc2F)c(C)n1` [Example 161, N-[5-({2-[(cyclopropylcarbonyl)amino]imidazo[1,2-b]pyridazin-6-yl}oxy)-2-fluorophenyl]-1-ethyl-3-methyl-1H-pyrazole-4-carboxamide]: the 50% inhibitory concentration (IC50) in test [1], in test [2] and in test [4] was at most 500 nM throughout. The inhibition at 1 µM in test [3] was at least 90%.
Consider `Cc1cc(C(=O)Nc2cc(Oc3ccc4nc(NC(=O)C5CC5C)cn4n3)ccc2F)n(C)n1` (stereo not shown) [Example 243, N-{2-fluoro-5-[(2-{[(2-methylcyclopropyl)carbonyl]amino}imidazo[1,2-b]pyridazin-6-yl)oxy]phenyl}-1,3-dimethyl-1H-pyrazole-5-carboxamide], for which the IC50 in test [1], in test [2] and in test [4] was at most 500 nM in each case. The inhibition at 1 µM in test [3] was at least 90%.
For the compound `CC#CC(=O)Nc1cc(Oc2ccc3nc(NC(=O)C4CC4)cn3n2)ccc1C` [Example 241, N-{6-[3-(but-2-ynoylamino)-4-methylphenoxy]imidazo[1,2-b]pyridazin-2-yl}cyclopropanecarboxamide], the IC50 in test [1], in test [2] and in test [4] was at most 500 nM each time. In addition, the inhibition at 1 µM in test [3] was at least 90%.
With `CCc1cc(C(=O)Nc2cc(Oc3ccc4nc(NC(=O)C5CC5)cn4n3)ccc2Cl)n(C)n1` [Example 247, N-[2-chloro-5-({2-[(cyclopropylcarbonyl)amino]imidazo[1,2-b]pyridazin-6-yl}oxy)phenyl]-3-ethyl-1-methyl-1H-pyrazole-5-carboxamide], the 50% inhibitory concentration (IC50) in test [1], in test [2] and in test [4] was at most 500 nM each time. Further, the inhibition at 1 µM in test [3] is at least 90%.
With `CCn1nccc1C(=O)Nc1cc(Oc2ccc3nc(NC(=O)C4CC4)cn3n2)ccc1F` [Example 174, N-[5-({2-[(cyclopropylcarbonyl)amino]imidazo[1,2-b]pyridazin-6-yl}oxy)-2-fluorophenyl]-1-ethyl-1H-pyrazole-5-carboxamide], the half-inhibitory concentration (IC50) in test [1], in test [2] and in test [4] was at most 500 nM in each case. Also, the inhibition at 1 µM in test [3] is at least 90%.
For `O=C(Nc1cccc(Oc2ccc3nc(NC(=O)C4CC4)cn3n2)c1)c1ccccc1` [Example 165, N-[3-({2-[(cyclopropylcarbonyl)amino]imidazo[1,2-b]pyridazin-6-yl}oxy)phenyl]benzamide], the IC50 in test [1], in test [2] and in test [4] was at most 500 nM in each case. Also, in test [3], the inhibition at 1 µM was at least 90%.
In the case of `Cc1ccc(Oc2ccc3nc(NC(=O)C4CC4)cn3n2)cc1NC(=O)c1scnc1C` [Example 298, N-[5-({2-[(cyclopropylcarbonyl)amino]imidazo[1,2-b]pyridazin-6-yl}oxy)-2-methylphenyl]-4-methyl-1,3-thiazole-5-carboxamide], the IC50 in test [1], in test [2] and in test [4] was at most 500 nM each time. Moreover, the inhibition at 1 µM in test [3] is at least 90%.
In the case of `Cn1nccc1C(=O)Nc1cc(Oc2ccc3nc(NC(=O)C4CC4)cn3n2)ccc1F` [Example 287, N-[5-({2-[(cyclopropylcarbonyl)amino]imidazo[1,2-b]pyridazin-6-yl}oxy)-2-fluorophenyl]-1-methyl-1H-pyrazole-5-carboxamide], the half-inhibitory concentration (IC50) in test [1], in test [2] and in test [4] was at most 500 nM each time. For the same compound, in test [3], the inhibition at 1 µM is at least 90%.
As for `Cc1cccnc1C(=O)Nc1cccc(Oc2ccc3nc(NC(=O)C4CC4)cn3n2)c1` [Example 187, N-[3-({2-[(cyclopropylcarbonyl)amino]imidazo[1,2-b]pyridazin-6-yl}oxy)phenyl]-3-methylpyridine-2-carboxamide], the concentration for half-maximal inhibition (IC50) in test [1], in test [2] and in test [4] was at most 500 nM in each case. In addition, the inhibition at 1 µM in test [3] was at least 90%.
On to `Cc1cc(C(=O)Nc2cc(Oc3ccc4nc(NC(=O)C5CC5)cn4n3)ccc2F)n(C)n1` [Example 148, N-[5-({2-[(cyclopropylcarbonyl)amino]imidazo[1,2-b]pyridazin-6-yl}oxy)-2-fluorophenyl]-1,3-dimethyl-1H-pyrazole-5-carboxamide], for which the IC50 in test [1], in test [2] and in test [4] was at most 500 nM each time. Further, the inhibition at 1 µM in test [3] is at least 90%.

For the origin of these results see patent publication US8034812B2, “Imidazopyridazine derivative having kinase inhibitory activity and pharmaceutical agent thereof” (Takeda Pharmaceutical Company Limited, priority 2006, dated 2011).
